The target of the experiment is T1, Human PD-L1/PD-1 (Homo sapiens, UniProt Q9NZQ7).
T1 construct: TVMV protease cleavage site (C); made in house; host or cells: HEK293T cells
Briefly: HTRF Human PD-L1/PD-1 binding assay (PD-1-Ig/PD-L1-His). As to conditions: PD-L1-His 10 nM, PD-1-Ig 20 nM; class symbol; read-out: HTRF Human PD-L1/PD-1 Binding Assay IC50 Range. Put shortly: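 Competition of macrocyclic peptides for PD-1/PD-L1 binding measured by HTRF in dPBS containing 0.1% BSA and 0.05% Tween-20. Compound and PD-L1-His (10 nM final) incubated 15 min before PD-1-Ig (20 nM final) and a further 15 min.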
In general terms: In TR-FRET formats the signal depends on donor and acceptor labels being close together.

*1 amine or outer side, *2 acyl side, *3 side chain or, on linkers, in order; H or OH if unused. Where a SMILES comes first, the peptide text is derived from it. Bridges are numbered along the chain shown (N, C = ends). [ ]: non-standard residue; d: D form. Trp(1-CH2COOH) = N[C@@H](Cc1cn(CC(=O)O)c2ccccc12)C(=O)O; Phe(3,4,5-F3) = N[C@@H](Cc1cc(F)c(F)c(F)c1)C(=O)O; NMePhe(4-F) = CN[C@@H](Cc1ccc(F)cc1)C(=O)O; d(cisHyp) = O=C(O)[C@H]1C[C@@H](O)CN1; NMeF = CN[C@@H](Cc1ccccc1)C(=O)O; X1 = O=C([C@H]1COCCN1[*:1])[*:2]; dHyp = O=C(O)[C@H]1C[C@H](O)CN1; NMeNle = CCCC[C@H](NC)C(=O)O; dPip = O=C(O)[C@H]1CCCCN1; Orn = NCCC[C@H](N)C(=O)O; Dab = NCC[C@H](N)C(=O)O; Dap = NC[C@H](N)C(=O)O

T1 sequence (Q9NZQ7 with tags, fused parts or gaps): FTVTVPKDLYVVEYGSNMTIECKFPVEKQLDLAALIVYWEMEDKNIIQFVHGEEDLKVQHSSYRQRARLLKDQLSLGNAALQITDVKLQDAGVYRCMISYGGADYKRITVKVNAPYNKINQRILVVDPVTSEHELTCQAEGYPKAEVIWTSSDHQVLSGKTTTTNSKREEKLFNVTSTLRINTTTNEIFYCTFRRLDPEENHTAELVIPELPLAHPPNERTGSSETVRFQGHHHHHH

For `CCCC[C@H]1C(=O)N2CCC[C@@H]2C(=O)N[C@@H](CN)C(=O)N[C@@H](C(C)C)C(=O)N(C)[C@@H](Cc2ccccc2)C(=O)N[C@@H](CC(=O)O)C(=O)N2CCCC[C@@H]2C(=O)N[C@@H](Cc2c[nH]c3ccccc23)C(=O)N[C@@H](Cc2ccc(O)cc2)C(=O)N[C@@H](CC(C)C)C(=O)N[C@H](C(=O)NCC(N)=O)CSCC(=O)N[C@@H](Cc2cc(F)c(F)c(F)c2)C(=O)N(C)[C@@H](Cc2ccc(F)cc2)C(=O)N1C` [Example 10582] ({CH2CO}-[Phe(3,4,5-F3)][NMePhe(4-F)][NMeNle][dP][Dap]V[NMeF]D[dPip]WYLCG-NH2; thioether N-13), the IC50 fell in the range of 1 to 9.9 nM. Under `CCCC[C@H]1C(=O)N2CCC[C@@H]2C(=O)N[C@@H](CO)C(=O)N[C@@H](C(C)C)C(=O)N(C)[C@@H](Cc2ccccc2)C(=O)N[C@@H](CC(=O)O)C(=O)N2CCCC[C@@H]2C(=O)N[C@@H](Cc2c[nH]c3ccccc23)C(=O)N[C@@H](Cc2ccc(O)cc2)C(=O)N[C@@H](CC(C)C)C(=O)N[C@H](C(=O)NCC(N)=O)CSCC(=O)N[C@@H](Cc2cc(F)c(F)c(F)c2)C(=O)N(C)[C@@H](Cc2ccc(F)cc2)C(=O)N1C` [Example 10583] ({CH2CO}-[Phe(3,4,5-F3)][NMePhe(4-F)][NMeNle][dP]SV[NMeF]D[dPip]WYLCG-NH2; thioether N-13) stands 1 to 9.9 nM. As to `CCCC[C@H]1C(=O)N2CCC[C@@H]2C(=O)N[C@@H](CC(N)=O)C(=O)N[C@@H](C(C)C)C(=O)N(C)[C@@H](Cc2ccccc2)C(=O)N[C@@H](CC(=O)O)C(=O)N2CCCC[C@@H]2C(=O)N[C@@H](Cc2c[nH]c3ccccc23)C(=O)N[C@@H](Cc2ccc(O)cc2)C(=O)N[C@@H](CC(C)C)C(=O)N[C@H](C(=O)NCC(N)=O)CSCC(=O)N[C@@H](Cc2cc(F)c(F)c(F)c2)C(=O)N(C)[C@@H](Cc2ccc(F)cc2)C(=O)N1C` [Example 10584] ({CH2CO}-[Phe(3,4,5-F3)][NMePhe(4-F)][NMeNle][dP]NV[NMeF]D[dPip]WYLCG-NH2; thioether N-13), the IC50 is 1 to 9.9 nM. Under `CCCC[C@H]1C(=O)N2C[C@@H](O)C[C@@H]2C(=O)N[C@@H](CC(=O)O)C(=O)N[C@@H](C(C)C)C(=O)N(C)[C@@H](Cc2ccccc2)C(=O)N[C@@H](CCC(=O)O)C(=O)N2CCCC[C@@H]2C(=O)N[C@@H](Cc2cn(CC(=O)O)c3ccccc23)C(=O)N[C@@H](Cc2ccc(O)cc2)C(=O)N[C@@H](CCN)C(=O)N[C@H](C(=O)NCC(N)=O)CSCC(=O)N[C@@H](Cc2cc(F)c(F)c(F)c2)C(=O)N(C)[C@@H](Cc2ccccc2)C(=O)N1C` [Example 10585] ({CH2CO}-[Phe(3,4,5-F3)][NMeF][NMeNle][dHyp]DV[NMeF]E[dPip][Trp(1-CH2COOH)]Y[Dab]CG-NH2; thioether N-13) stands 1 to 9.9 nM; under `CCCC[C@H]1C(=O)N2C[C@@H](O)C[C@@H]2C(=O)N[C@@H](CC(=O)O)C(=O)N[C@@H](C(C)C)C(=O)N(C)[C@@H](Cc2ccccc2)C(=O)N[C@@H](CCC(=O)O)C(=O)N2CCCC[C@@H]2C(=O)N[C@@H](Cc2cn(CC(=O)O)c3ccccc23)C(=O)N[C@@H](Cc2ccc(O)cc2)C(=O)N[C@@H](CC(C)C)C(=O)N[C@H](C(=O)NCC(N)=O)CSCC(=O)N[C@@H](Cc2cc(F)c(F)c(F)c2)C(=O)N(C)[C@@H](Cc2ccccc2)C(=O)N1C` [Example 10586] ({CH2CO}-[Phe(3,4,5-F3)][NMeF][NMeNle][dHyp]DV[NMeF]E[dPip][Trp(1-CH2COOH)]YLCG-NH2; thioether N-13), 1 to 9.9 nM. The same measure for `CCCC[C@H]1C(=O)N2CCC[C@@H]2C(=O)N[C@@H](CO)C(=O)N[C@@H](C(C)C)C(=O)N(C)[C@@H](Cc2ccccc2)C(=O)N[C@@H](CCC(=O)O)C(=O)N2CCCC[C@@H]2C(=O)N[C@@H](Cc2c[nH]c3ccccc23)C(=O)N[C@@H](Cc2ccc(O)cc2)C(=O)N[C@@H](CC(C)C)C(=O)N[C@H](C(=O)NCC(N)=O)CSCC(=O)N[C@@H](Cc2cc(F)c(F)c(F)c2)C(=O)N(C)[C@@H](Cc2ccc(F)cc2)C(=O)N1C` [Example 10587] ({CH2CO}-[Phe(3,4,5-F3)][NMePhe(4-F)][NMeNle][dP]SV[NMeF]E[dPip]WYLCG-NH2; thioether N-13): 1 to 9.9 nM; for `CCCC[C@H]1C(=O)N2C[C@H](O)C[C@@H]2C(=O)N[C@@H](CC(=O)O)C(=O)N[C@@H](C(C)C)C(=O)N(C)[C@@H](Cc2ccccc2)C(=O)N[C@@H](CCC(=O)O)C(=O)N2CCOC[C@@H]2C(=O)N[C@@H](Cc2c[nH]c3ccccc23)C(=O)N[C@@H](Cc2ccc(O)cc2)C(=O)N[C@@H](CCCN)C(=O)N[C@H](C(=O)NCC(N)=O)CSCC(=O)N[C@@H](Cc2cc(F)c(F)c(F)c2)C(=O)N(C)[C@@H](Cc2ccc(F)cc2)C(=O)N1C` [Example 10590] ({CH2CO}-[Phe(3,4,5-F3)][NMePhe(4-F)][NMeNle][d(cisHyp)]DV[NMeF]E[X1]WY[Orn]CG-NH2; thioether N-13): 1 to 9.9 nM.

In the case of `CCCC[C@H]1C(=O)N2C[C@H](O)C[C@@H]2C(=O)N[C@@H](CC(=O)O)C(=O)N[C@@H](C(C)C)C(=O)N(C)[C@@H](Cc2ccccc2)C(=O)N[C@@H](CCC(=O)O)C(=O)N2CCOC[C@@H]2C(=O)N[C@@H](Cc2c[nH]c3ccccc23)C(=O)N[C@@H](Cc2ccc(O)cc2)C(=O)N[C@@H](CC(N)=O)C(=O)N[C@H](C(=O)NCC(N)=O)CSCC(=O)N[C@@H](Cc2cc(F)c(F)c(F)c2)C(=O)N(C)[C@@H](Cc2ccc(F)cc2)C(=O)N1C` [Example 10591] ({CH2CO}-[Phe(3,4,5-F3)][NMePhe(4-F)][NMeNle][d(cisHyp)]DV[NMeF]E[X1]WYNCG-NH2; thioether N-13), the IC50 is 1 to 9.9 nM. The same measure for `CCCC[C@H]1C(=O)N2C[C@H](O)C[C@@H]2C(=O)N[C@@H](CC(=O)O)C(=O)N[C@@H](C(C)C)C(=O)N(C)[C@@H](Cc2ccccc2)C(=O)N[C@@H](CCC(=O)O)C(=O)N2CCOC[C@@H]2C(=O)N[C@@H](Cc2c[nH]c3ccccc23)C(=O)N[C@@H](Cc2ccc(O)cc2)C(=O)N[C@@H](CCCCN)C(=O)N[C@H](C(=O)NCC(N)=O)CSCC(=O)N[C@@H](Cc2cc(F)c(F)c(F)c2)C(=O)N(C)[C@@H](Cc2ccc(F)cc2)C(=O)N1C` [Example 10592] ({CH2CO}-[Phe(3,4,5-F3)][NMePhe(4-F)][NMeNle][d(cisHyp)]DV[NMeF]E[X1]WYKCG-NH2; thioether N-13): 1 to 9.9 nM; for `CCCC[C@H]1C(=O)N2CCC[C@@H]2C(=O)N[C@@H](CC(=O)O)C(=O)N[C@@H](C(C)C)C(=O)N(C)[C@@H](Cc2ccccc2)C(=O)N[C@@H](CCC(=O)O)C(=O)N2CCOC[C@@H]2C(=O)N[C@@H](Cc2c[nH]c3ccccc23)C(=O)N[C@@H](Cc2ccc(O)cc2)C(=O)N[C@@H](CC(C)C)C(=O)N[C@H](C(=O)NCC(N)=O)CSCC(=O)N[C@@H](Cc2cc(F)c(F)c(F)c2)C(=O)N(C)[C@@H](Cc2ccc(F)cc2)C(=O)N1C` [Example 10593] ({CH2CO}-[Phe(3,4,5-F3)][NMePhe(4-F)][NMeNle][dP]DV[NMeF]E[X1]WYLCG-NH2; thioether N-13): 1 to 9.9 nM; for `CCCC[C@H]1C(=O)N2C[C@H](O)C[C@@H]2C(=O)N[C@@H](CC(=O)O)C(=O)N[C@@H](C(C)C)C(=O)N(C)[C@@H](Cc2ccccc2)C(=O)N[C@@H](CCC(=O)O)C(=O)N2CCOC[C@@H]2C(=O)N[C@@H](Cc2c[nH]c3ccccc23)C(=O)N[C@@H](Cc2ccc(O)cc2)C(=O)N[C@@H](CC(C)C)C(=O)N[C@H](C(=O)NCC(N)=O)CSCC(=O)N[C@@H](Cc2cc(F)c(F)c(F)c2)C(=O)N(C)[C@@H](Cc2ccc(F)cc2)C(=O)N1C` [Example 10594] ({CH2CO}-[Phe(3,4,5-F3)][NMePhe(4-F)][NMeNle][d(cisHyp)]DV[NMeF]E[X1]WYLCG-NH2; thioether N-13): 1 to 9.9 nM.

The record behind these values is patent publication US10538555B2, “Macrocyclic inhibitors of the PD-1/PD-L1 and CD80(B7-1)/PD-L1 protein/protein interactions” (BRISTOL-MYERS SQUIBB COMPANY, priority 2014, dated 2020).
